Like-named read-outs stand apart in the source and are kept apart here.
Key:
[1] = system: human colorectal cancer HCT116 cells; assay: Inhibitory effect on growth of human cancer cells (in vitro), WST-8; assay type: cell-based; settings: Homo sapiens, HCT-116, 96 h, 96 hours culture
Outline: (§1)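 Cells seeded at 1000 cells/well in RPMI1640 with 10% FBS, compounds added after overnight culture, then 96 h exposure. Viability by WST-8, about 1 h at 37 °C, 5% CO2, absorbance read at 450 nm.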

[2] = system: human non-small cell lung cancer A549 cells; assay: as above; assay type: cell-based; settings: Homo sapiens, A549, 96 h, 96 hours culture
Outline: as §1

[3] = system: human colorectal cancer HT-29 cells; assay: as above; assay type: cell-based; settings: Homo sapiens, HT-29, 96 h, 96 hours culture, read-out: IC50 (nM) HT29
Outline: as §1

[4] = system: Human uterus cancer MES-SA cells; assay: Inhibitory effect on growth of multidrug-resistant cell line, parent line (in vitro); assay type: cell-based; settings: 48 hours culture, WST-8
From the text: (§2) Each compound of the present invention was studied for its effect on the growth of a multidrug-resistant cell line. A drug efflux pump called P-glycoprotein is well known to be involved in the drug resistance mechanism of the multidrug-resistant line MES-SA/Dx5 used in this experiment. Accordingly, in this experiment, paclitaxel and vincristine, which are proven substrates of P-glycoprotein, were used as control drugs. Human uterus cancer MES-SA cells and their multidrug-resistant line MES-SA/Dx5 cells were suspended in a medium and inoculated at a cell density of 2000 cells/50 μL/well to a 96-well plate. After overnight culture, each test sample diluted with a medium was added thereto at a concentration of 50 μL/well, and the cells were further cultured for 48 hours. After the completion of culture, WST-8 was added thereto at a concentration of 10 μL/well, and the cells were cultured at 37° C. for approximately 1 hour under 5% CO2 conditions, followed by measurement of absorbance at a wavelength of 450 nm. […] The resistance rate was calculated according to the following expression:
(§3) Resistance rate=IC50 value (MES-SA/Dx5)/IC50 value (MES-SA)

[5] = system: human lung cancer NCI-H460 xenograft tumor; assay: Antitumor effect on growth of human lung cancer NCI-H460 xenograft tumor (in vivo); design: species or system BALB/c nude mice; settings: Mus musculus, NCI-H460, iv, 528 h, tail vein, excised tumor weight Day 22, read-out: Inhibition Rate (%)
Protocol: Each compound of the present invention was studied for its in vivo antitumor effect using human lung cancer NCI-H460 cell-transplanted mice. An NCI-H460 cell suspension containing 2×10^6 cells was subcutaneously transplanted in an amount of 0.1 mL/mouse to the left groin areas of 6-week-old male BALB/c nude mice. The mice were further raised for approximately 1 week to 10 days and divided into groups (4 mice per group) having equal estimated tumor volumes at the point in time when the tumor size reached approximately 100 to 200 mm^3 (Day 1). Each administration sample was administered at a dose of 10 mL/kg into the tail vein of the mice. The dose and administration schedule of each compound were as described in Table 3. At Day 22, tumor was excised from each mouse. The tumor growth inhibition rate (IR: Inhibition Rate) was calculated from the weight of the excised tumor according to the expression shown below. The Dunnett's test was used in the significant difference test.
Tumor growth inhibition rate (Inhibition Rate, %)=(1−(Excised tumor weight of the administration group)/(Excised tumor weight of the control group))×100

[6] = system: multidrug-resistant line MES-SA/Dx5 cells; assay: Inhibitory effect on growth of multidrug-resistant cell line (in vitro); assay type: cell-based, human; settings: for IC50: Homo sapiens, MES-SA/Dx5 cells, 48 hours culture, WST-8; for Resistance rate: IC50 value (MES-SA/Dx5)/IC50 value (MES-SA)
From the text: as §2, §3

[7] = Days 1, 3, 5, 8, 10, 12, 15, 17, 19
[8] = Days 1, 3, 8, 10, 12, 15, 17, 19

| IC50 [1] [nM] | IC50 [2] [nM] | IC50 [3] [nM] | Structure (SMILES) | further results |
| --- | --- | --- | --- | --- |
| 9.5 | 19.3 | 8.7 | Cc1[nH]c(-c2nnn(CCO)n2)c(C)c1C(=O)c1cccc(Br)c1 [Compound 102, (3-bromophenyl)(5-(2-(2-hydroxyethyl)-2H-tetrazol-5-yl)-2,4-dimethyl-1H-pyrrol-3-yl)methanone] | IC50 [4]: 3.8 nM; inhibition in vivo at 12.5 mg/kg [5, 7]: 43.4%; inhibition in vivo at 25 mg/kg [5, 7]: 61.1%; inhibition in vivo at 37.5 mg/kg ([5]; 37.5 mg/kg, Days 1, 3, 5, 8, 10, 12, 15, 17, 19): 80.5%; inhibition in vivo at 40 mg/kg ([5]; 40 mg/kg, Days 1, 5, 9): 96.5%; IC50 [6]: 4.3 nM; Resistance rate [6]: 1.1 |
| 39 | 13 | 10.7 | COc1ccc(C(=O)c2c(C(F)F)[nH]c(-c3nnc(C4CC4)o3)c2C)cc1Br [Compound 267, (3-bromo-4-methoxyphenyl) (5-(5-cyclopropyl-1,3,4-oxadiazol-2-yl)-2-(difluoromethyl)-4-methyl-1H-pyrrol-3-yl)methanone] | inhibition in vivo at 20 mg/kg [5, 7]: 35.6% |
| 1.6 | 4.7 | 2.7 | COc1ccc(C(=O)c2c(CO)[nH]c(-c3nnc(C4CC4)o3)c2C)cc1Br [Compound 266, (3-bromo-4-methoxyphenyl)(5-(5-cyclopropyl-1,3,4-oxadiazol-2-yl)-2-(hydroxymethyl)-4-methyl-1H-pyrrol-3-yl)methanone] | inhibition in vivo at 20 mg/kg [5, 7]: 39.4% |
| 0.9 | 1.8 | 0.3 | COc1ccc(C(=O)c2c(C)[nH]c(-c3nnc(C4CC4)o3)c2C)cc1Br [Compound 198, (3-bromo-4-methoxyphenyl) (5-(5-cyclopropyl-1,3,4-oxadiazol-2-yl)-2,4-dimethyl-1H-pyrrol-3-yl)methanone] | IC50 [4]: 0.21 nM; inhibition in vivo at 10 mg/kg [5, 8]: 51.6%; IC50 [6]: 0.28 nM; Resistance rate [6]: 1.3 |
| 2.5 | 4.1 | 5.2 | COc1ccc(C(=O)c2c(C(C)O)[nH]c(-c3nnc(C4CC4)o3)c2C)cc1Br (centres unmarked) [Compound 268, (3-bromo-4-methoxyphenyl)(5-(5-cyclopropyl-1,3,4-oxadiazol-2-yl)-2-(1-hydroxyethyl)-4-methyl-1H-pyrrol-3-yl)methanone] | inhibition in vivo at 20 mg/kg [5, 7]: 41.2% |
| 2.5 | 4.3 | 2.1 | CCc1nnc(-c2[nH]c(C)c(C(=O)c3cccc(OC)c3)c2C)o1 [Compound 193, (5-(5-ethyl-1,3,4-oxadiazol-2-yl)-2,4-dimethyl-1H-pyrrol-3-yl) (3-methoxyphenyl)methanone] | inhibition in vivo at 10 mg/kg [5, 8]: 33.9% |
| 1.9 | 2.1 | 1.1 | COc1ccc(Br)cc1C(=O)c1c(C)[nH]c(-c2nnc(C3CC3)o2)c1C [Compound 240, (5-bromo-2-methoxyphenyl)(5-(5-cyclopropyl-1,3,4-oxadiazol-2-yl)-2,4-dimethyl-1H-pyrrol-3-yl)methanone] | inhibition in vivo at 12.5 mg/kg [5, 7]: 33.2% |
| 27.4 | 54.9 | 16.1 | COc1cccc(C(=O)c2c(C)[nH]c(-c3nnn(CCO)n3)c2C)c1 [Compound 107] | inhibition in vivo at 25 mg/kg [5, 7]: 32.6% |
| 4.1 | 2.4 | 3.5 | CCn1nnc(-c2[nH]c(C)c(C(=O)c3cccc(Br)c3)c2C)n1 [Compound 97, (3-bromophenyl)(5-(2-ethyl-2H-tetrazol-5-yl)-2,4-dimethyl-1H-pyrrol-3-yl)methanone] | inhibition in vivo at 30 mg/kg ([5]; 30 mg/kg, Days 1, 3, 5, 8, 10, 12, 15, 17, 19): 31.2% |
| 53.8 | 36.5 | 32.5 | COc1ccc(C(=O)c2c(C=O)[nH]c(-c3nnc(C4CC4)o3)c2C)cc1Br [Compound 263, 3-(3-bromo-4-methoxybenzoyl)-5-(5-cyclopropyl-1,3,4-oxadiazol-2-yl)-4-methyl-1H-pyrrole-2-carboaldehyde] | inhibition in vivo at 50 mg/kg ([5]; 50 mg/kg, Days 1, 3, 5, 8, 10, 12, 15, 17, 19): 59.6% |
| 1.1 | 5.1 | 1 | CCc1nnc(-c2[nH]c(C)c(C(=O)c3cccc(Br)c3)c2C)o1 [Compound 173, (3-bromophenyl)(5-(5-ethyl-1,3,4-oxadiazol-2-yl)-2,4-dimethyl-1H-pyrrol-3-yl)methanone] | inhibition in vivo at 10 mg/kg [5, 7]: 40.2% |
| – | – | – | CC[C@]1(O)C[C@H]2CN(CCc3c([nH]c4ccccc34)[C@@](C(=O)OC)(c3cc4c(cc3OC)N(C=O)[C@H]3[C@@](O)(C(=O)OC)[C@H](OC(C)=O)[C@]5(CC)C=CCN6CC[C@]43[C@@H]65)C2)C1 [Vincristine, vincristine, reference compound] | IC50 [4]: 36.2 nM; IC50 [6]: 2440 nM; Resistance rate [6]: 67.5 |
| 2 | 9.2 | 1 | CCn1nnc(-c2[nH]c(C)c(C(=O)c3ccc(OC)c(Br)c3)c2C)n1 [Compound 109, (3-bromo-4-methoxyphenyl)(5-(2-ethyl-2H-tetrazol-5-yl)-2,4-dimethyl-1H-pyrrol-3-yl)methanone] | inhibition in vivo at 25 mg/kg [5, 8]: 29% |
| 14.2 | 39.3 | 8.2 | COc1ccc(C(=O)c2c(C)[nH]c(-c3nnn(CCO)n3)c2C)cc1Br [Compound 110, (3-bromo-4-methoxyphenyl)(5-(2-(2-hydroxyethyl)-2H-tetrazol-5-yl)-2,4-dimethyl-1H-pyrrol-3-yl)methanone] | IC50 [4]: 5.5 nM; inhibition in vivo at 12.5 mg/kg [5, 7]: 55.8%; inhibition in vivo at 18.75 mg/kg ([5]; 18.75 mg/kg, Days 1, 3, 5, 8, 10, 12, 15, 17, 19): 77.4%; IC50 [6]: 22.7 nM; Resistance rate [6]: 4.2 |

Source: patent US20140343017A1, “PYRROLE COMPOUND” (Kabushiki Kaisha Yakult Honsha, priority 2012, published 2014)
